{"source": "patent US10227331B2", "about": "(priority 2015, dated 2019)", "key": {"IMP-1": {"molecular_target": "IMP-1 (Serratia marcescens, UniProt P52699)", "sequence (P52699 whole entry, looked up, species assumed)": "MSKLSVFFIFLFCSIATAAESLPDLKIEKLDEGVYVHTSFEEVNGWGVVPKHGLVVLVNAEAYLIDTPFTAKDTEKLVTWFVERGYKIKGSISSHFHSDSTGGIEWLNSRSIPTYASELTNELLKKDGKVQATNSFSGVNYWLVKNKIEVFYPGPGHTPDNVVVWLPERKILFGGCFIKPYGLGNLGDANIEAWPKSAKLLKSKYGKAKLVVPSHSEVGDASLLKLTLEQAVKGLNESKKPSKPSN", "experiment": "biochemical", "format": "biochemical", "conditions": "CCF2-FA substrate, 2 hours at 25° C; read-out: IMP-1 IC50", "in_short": "(§1)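 Fluorescence assay of metallo-β-lactamase activity using CCF2-FA, a cephalosporin-linked 7-hydroxycoumarin–fluorescein substrate. Inhibitor, enzyme and substrate were incubated together for 2 hours at 25° C. IC50 came from a 4-parameter fit of inhibition versus inhibitor concentration.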"}, "NDM-1": {"molecular_target": "NDM-1 (Klebsiella pneumoniae, UniProt C7C422)", "sequence (C7C422 whole entry, looked up, species assumed)": "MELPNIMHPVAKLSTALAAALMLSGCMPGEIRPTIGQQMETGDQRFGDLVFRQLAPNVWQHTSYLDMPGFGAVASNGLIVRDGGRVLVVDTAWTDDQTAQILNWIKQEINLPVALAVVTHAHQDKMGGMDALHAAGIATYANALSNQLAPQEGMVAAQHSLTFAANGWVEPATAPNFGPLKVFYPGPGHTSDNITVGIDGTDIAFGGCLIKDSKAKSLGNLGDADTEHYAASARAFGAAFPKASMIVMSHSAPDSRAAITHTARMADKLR", "experiment": "biochemical", "format": "biochemical", "conditions": "CCF2-FA substrate, 2 hours at 25° C; read-out: NDM-1 IC50", "in_short": "as §1"}, "VIM-1": {"molecular_target": "VIM-1 (Pseudomonas aeruginosa (strain ATCC 15692 / DSM 22644 / CIP 104116 / JCM 14847 / LMG 12228 / 1C / PRS 101 / PAO1), UniProt A0A0F7KYQ8)", "experiment": "biochemical", "conditions": "CCF2-FA substrate, 2 hours at 25° C", "in_short": "as §1"}, "[1]": {"test_system": "Escherichia coli expressing NDM-1 (CLB30005, CLB30016)", "format": "cell-based", "conditions": "with imipenem 1 μg/ml, 95% inhibition of bacterial growth", "in_short": "(§2)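 Clinical strains grown overnight on blood agar, then diluted 1:100 in 1.1× CAMHB and exposed to test compound with imipenem at 1 μg/ml. Incubation was 22–24 h at 35° C; growth was read by absorbance to find the compound concentration restoring imipenem susceptibility.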"}, "[2]": {"test_system": "Klebsiella pneumoniae expressing VIM-1 (IHMA599644)", "format": "cell-based", "conditions": "with imipenem 1 μg/ml, 95% inhibition of bacterial growth", "in_short": "as §2"}, "[3]": {"test_system": "Serratia marcescens expressing IMP-1 (CL5741)", "format": "cell-based", "conditions": "with imipenem 1 μg/ml, 95% inhibition of bacterial growth", "in_short": "as §2"}, "[4]": {"test_system": "P. aeruginosa expressing IMP-1, efflux+ (MB9798)", "format": "cell-based, Pseudomonas aeruginosa", "conditions": "for P. aeruginosa expressing IMP-1, efflux+ (MB9798) MITC95: imipenem at 2 μg/mL, in the presence of a class A, C, D serine β-lactamase inhibitor closely related to relebactam; for Efflux ratio: ratio MITC95 PA_9798/MITC95 PA_9799", "text": "(§3) The strain background is Pseudomonas aeruginosa PAO1."}, "[5]": {"test_system": "P. aeruginosa expressing IMP-1, efflux− (MB9799)", "experiment": "Efflux: concentration of MBL inhibitor which restores susceptibility to imipenem", "format": "cell-based, Pseudomonas aeruginosa", "conditions": "imipenem at 2 μg/mL, in the presence of a class A, C, D serine β-lactamase inhibitor closely related to relebactam", "text": "as §3"}}}
{"smiles": "NCCS(=O)(=O)c1ccc(-c2cccc(C(=O)N[C@H]3CCNC3)c2N)c(-c2nn[nH]n2)c1S(N)(=O)=O", "note": "[Example 376, (S)-2-Amino-4′-((2-aminoethyl)sulfonyl)-N-(pyrrolidin-3-yl)-3′-sulfamoyl-2′-(2H-tetrazol-5-yl)-[1,1′-biphenyl]-3-carboxamide]", "values": [{"measurement": "IC50", "setting": "IMP-1", "value": 2.58, "unit": "nM"}, {"measurement": "IC50", "setting": "NDM-1", "value": 2.92, "unit": "nM"}, {"measurement": "IC50", "setting": "VIM-1", "value": 0.539, "unit": "nM"}, {"measurement": "Escherichia coli MITC95", "setting": "[1]; NDM-1 (CLB30016)", "value": 3.125, "unit": "µM"}, {"measurement": "Klebsiella pneumoniae MITC95", "setting": "[2]; VIM-1 (IHMA599644)", "value": 1.563, "unit": "µM"}, {"measurement": "Serratia marcescens MITC95", "setting": "[3]; IMP-1 (CL5741)", "value": 1.563, "unit": "µM"}, {"measurement": "P. aeruginosa expressing IMP-1, efflux+ (MB9798) MITC95", "setting": "[4]", "value": 3.125, "unit": "µM"}, {"measurement": "Efflux ratio", "setting": "[4]", "value": 2.00}, {"measurement": "P. aeruginosa expressing IMP-1, efflux− (MB9799) MITC95", "setting": "[5]", "value": 1.563, "unit": "µM"}]}
{"smiles": "NS(=O)(=O)c1c(SC2CCNCC2)ccc(-c2ccc(C3CCNCC3)cc2)c1-c1nnn[nH]1", "note": "[Example 226, 4′-(piperidin-4-yl)-4-(piperidin-4-ylthio)-2-(1H-tetrazol-5-yl)-[1,1′-biphenyl]-3-sulfonamide]", "values": [{"measurement": "IC50", "setting": "IMP-1", "value": 35.7, "unit": "nM"}, {"measurement": "IC50", "setting": "NDM-1", "value": 15.1, "unit": "nM"}, {"measurement": "IC50", "setting": "VIM-1", "value": 48.5, "unit": "nM"}, {"measurement": "Escherichia coli expressing NDM-1 (CLB30016) MITC95", "setting": "[1]", "value": 1.563, "unit": "µM"}, {"measurement": "Klebsiella pneumoniae expressing VIM-1 (IHMA599644) MITC95", "setting": "[2]", "value": 6.25, "unit": "µM"}, {"measurement": "Serratia marcescens expressing IMP-1 (CL5741) MITC95", "setting": "[3]", "value": 3.125, "unit": "µM"}, {"measurement": "P. aeruginosa expressing IMP-1, efflux+ (MB9798) MITC95", "setting": "[4]", "value": 25, "unit": "µM"}, {"measurement": "Efflux ratio", "setting": "[4]", "value": 32.00}, {"measurement": "P. aeruginosa expressing IMP-1, efflux− (MB9799) MITC95", "setting": "[5]", "value": 0.7813, "unit": "µM"}]}
{"smiles": "Cn1cc2cc(-c3ccc(S(=O)(=O)CCN)c(S(N)(=O)=O)c3-c3nnn[nH]3)ccc2n1.O=C(O)C(F)(F)F", "note": "[Example 153, 2-((4-(2-methyl-2H-indazol-5-yl)-2-sulfamoyl-3-(1H-tetrazol-5-yl)phenyl)sulfonyl)ethanaminium 2,2,2-trifluoroacetate]", "values": [{"measurement": "IC50", "setting": "IMP-1", "value": 0.457, "unit": "nM"}, {"measurement": "IC50", "setting": "NDM-1", "value": 0.593, "unit": "nM"}, {"measurement": "IC50", "setting": "VIM-1", "value": 0.309, "unit": "nM"}, {"measurement": "Escherichia coli expressing NDM-1 (CLB30016) MITC95", "setting": "[1]", "value": 1.563, "unit": "µM"}, {"measurement": "Klebsiella pneumoniae expressing VIM-1 (IHMA599644) MITC95", "setting": "[2]", "value": 3.125, "unit": "µM"}, {"measurement": "Serratia marcescens expressing IMP-1 (CL5741) MITC95", "setting": "[3]", "value": 3.125, "unit": "µM"}, {"measurement": "P. aeruginosa expressing IMP-1, efflux+ (MB9798) MITC95", "setting": "[4]", "value": 6.25, "unit": "µM"}, {"measurement": "Efflux ratio", "setting": "[4]", "value": 4.00}, {"measurement": "P. aeruginosa expressing IMP-1, efflux− (MB9799) MITC95", "setting": "[5]", "value": 1.563, "unit": "µM"}]}
{"smiles": "NCCS(=O)(=O)c1ccc(-c2cncc3ccccc23)c(-c2nnn[nH]2)c1S(N)(=O)=O.O=C(O)C(F)(F)F", "note": "[Example 148, 2-((4-(isoquinolin-4-yl)-2-sulfamoyl-3-(1H-tetrazol-5-yl)phenyl)sulfonyl)ethanaminium 2,2,2-trifluoroacetate]", "values": [{"measurement": "IC50", "setting": "IMP-1", "value": 0.983, "unit": "nM"}, {"measurement": "IC50", "setting": "NDM-1", "value": 0.608, "unit": "nM"}, {"measurement": "IC50", "setting": "VIM-1", "value": 0.434, "unit": "nM"}, {"measurement": "Escherichia coli expressing NDM-1 (CLB30016) MITC95", "setting": "[1]", "value": 3.125, "unit": "µM"}, {"measurement": "Klebsiella pneumoniae expressing VIM-1 (IHMA599644) MITC95", "setting": "[2]", "value": 3.125, "unit": "µM"}, {"measurement": "Serratia marcescens expressing IMP-1 (CL5741) MITC95", "setting": "[3]", "value": 3.125, "unit": "µM"}, {"measurement": "P. aeruginosa expressing IMP-1, efflux+ (MB9798) MITC95", "setting": "[4]", "value": 3.125, "unit": "µM"}, {"measurement": "Efflux ratio", "setting": "[4]", "value": 2.00}, {"measurement": "P. aeruginosa expressing IMP-1, efflux− (MB9799) MITC95", "setting": "[5]", "value": 1.563, "unit": "µM"}]}
{"smiles": "Nc1nc2c(-c3ccc(S(=O)(=O)C4CNC4)c(S(N)(=O)=O)c3-c3nn[nH]n3)cccc2o1", "note": "[Example 30, 3-(2-aminobenzo[d]oxazol-4-yl)-6-(azetidin-3-ylsulfonyl)-2-(2H-tetrazol-5-yl)benzenesulfonamide]", "values": [{"measurement": "IC50", "setting": "IMP-1", "value": 0.585, "unit": "nM"}, {"measurement": "IC50", "setting": "NDM-1", "value": 0.0846, "unit": "nM"}, {"measurement": "IC50", "setting": "VIM-1", "value": 0.409, "unit": "nM"}, {"measurement": "Escherichia coli expressing NDM-1 (CLB30016) MITC95", "setting": "[1]", "value": 0.7813, "unit": "µM"}, {"measurement": "Klebsiella pneumoniae expressing VIM-1 (IHMA599644) MITC95", "setting": "[2]", "value": 3.125, "unit": "µM"}, {"measurement": "Serratia marcescens expressing IMP-1 (CL5741) MITC95", "setting": "[3]", "value": 1.563, "unit": "µM"}, {"measurement": "P. aeruginosa expressing IMP-1, efflux+ (MB9798) MITC95", "setting": "[4]", "value": 1.563, "unit": "µM"}, {"measurement": "Efflux ratio", "setting": "[4]", "value": 1.00}, {"measurement": "P. aeruginosa expressing IMP-1, efflux− (MB9799) MITC95", "setting": "[5]", "value": 1.563, "unit": "µM"}]}
